In patent US20260184702A1, “SYNTHESIS, PHARMACOLOGY AND USE OF NEW WATER-SOLUBLE AND SELECTIVE FMS-LIKE TYROSINE KINASE3 (FLT3) INHIBITORS” (Universität Regensburg, priority 2022, published 2026):
≈ marks a conversion by molar mass, not a printed value.

What was measured:
[1] = Solubility test by UV-Vis spectroscopy of saturated solutions; format: physicochemical; settings: for Solubility Ethanol [g/L] / Solubility Water [g/L]: saturated solution; for Solubility Water [g/L]: ultrapure water
Summary of the method: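 Solubility was measured by UV-Vis spectroscopy on an Agilent Cary 60 over 800-200 nm, using a scan rate of 300.0 nm/min, a 0.50 nm data interval, 0.10 s averaging time and a 10 mm cuvette. Filtered saturated supernatants were diluted into water:ethanol, read at the long-wave absorbance maximum against a calibration curve of at least 6 concentrations, in triplicate.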

[2] = system: subcutaneous MV4-11 CDX model; settings: female, NOD/SCID, mouse, in vivo, 5 days
[3] = system: EOL-1 (acute myeloid eosinophilic leukemia); settings: Sellmer et al. 2020; cited from earlier work
[4] = system: MOLM-13 (acute myeloid leukemia); settings: Sellmer et al. 2020; cited from earlier work
[5] = system: MONO-MAC-1 (acute monocytic leukemia); settings: Sellmer et al. 2020; cited from earlier work
[6] = system: MONO-MAC-6 (acute monocytic leukemia); settings: Sellmer et al. 2020; cited from earlier work
[7] = system: subcutaneous MV4-11 CDX model; test: In vivo efficacy study in subcutaneous MV4-11 CDX model in NOD/SCID mice; settings: 50 mg/kg po daily 5 days

SMILES: CC(C)(C)c1cc(NC(=O)Nc2ccc(-c3cn4c(n3)sc3cc(OCCN5CCOCC5)ccc34)cc2)no1 [Quizartinib, reference compound]
- solubility ([1]; DMSO, organic solvent or mixture, solvent DMSO, read-out: Solubility DMSO): 33.2 mg/mL (≈ 59.2 mM)
- Solubility Ethanol [g/L] [1]: no or at most very poor solubility
- Solubility Ethanol [g/L] ([1]; listed as AC220): Practical
- Solubility Water [g/L] [1]: no or at most very poor solubility
- Solubility Water [g/L] ([1]; listed as AC220): Practical
- study day after which mice had to be sacrificed [2]: 6 days
- IC50 [3]: 0.0001 µM
- IC50 [4]: 0.007 µM
- IC50 [5]: 0.006 µM
- IC50 [6]: 0.004 µM
- first death(s) (day of study) [7]: 600000 s
- number of living subjects, day of study 5 ([7]; 5 mice): 5
- number of living subjects, day of study 6 ([7]; 5 mice): 5
- number of living subjects, day of study 8 ([7]; 5 mice): 3
- number of living subjects, day of study 13 ([7]; 5 mice): 3
- number of living subjects, day of study 26 ([7]; 5 mice): 3
- number of living subjects, day of study 36 ([7]; 5 mice): 3
